Publication PMC10661964 (Current Drug Metabolism, 2023)

Legend:
[1] = Quantification of nifurtimox and metabolites in human urine (LC-HRMS); type: in vivo; settings: for AE,urine(0–24h), fasted patients: mean of 6 fasted patients with Chagas disease; for AE,urine(0–24h), fasted patients / AE,urine(0–24h), fed patients: single oral 120 mg nifurtimox; for AE,urine(0–24h), fed patients: mean of 6 fed patients with Chagas disease
Description: Urine samples were collected from fasted and fed patients pre-dose (0 h) and at four post-dose intervals (0-4, 4-8, 8-12, and 12-24 h) and stored frozen until required. For analysis, urine samples were thawed at room temperature and homogenized by vortex mixing. […] Equal volumes (75 µL) of an internal standard solution of [^2H8]-nifurtimox dissolved in water (10 µg/mL) were added to each urine, calibration, or control sample and mixed thoroughly. Samples from 6 patients were then analyzed using liquid chromatography-high-resolution mass spectrometry (LC-HRMS) with a 1290 Infinity LC system equipped with a diode array detector and an Orbitrap Fusion™ Lumos™ Tribrid™ HRMS (Thermo Fisher Scientific, Bremen, Germany) with a heated electrospray ionization source. For quantification, the LC conditions were as described above for analysis of rat plasma, and the HRMS parameters were: mass range, 120-600 Da in full scan mode and all ion fragmentation in positive ionization mode; resolution, 240,000; ion source voltage, 3500 V; capillary temperature, 300°C; source temperature, 60°C.
The system was calibrated using the relative peak area as a function of concentration, which was obtained by linear regression. Quantification was performed on a mass basis (μg/mL), with the final calculation for the percentage of dose excreted in urine made on a molar basis to account for the substantial differences (up to ~2.5-fold) in the molecular masses of the compounds of interest. The analytical precision for all analytes was in the range of 1.1% to 4.4%, with an accuracy of 94% to 107%. All concentrations in μg/mL were back-calculated to nmol/mL, and these concentrations were then used to calculate a total molar amount based on the urine volume collected during each interval.

OAT1 = target: T1, OAT1 (Homo sapiens, UniProt Q4U2R8); test: Uptake transporter inhibition; type: in vitro ADME; settings: probe substrate p-aminohippuric acid
T1 sequence (Q4U2R8 1-563): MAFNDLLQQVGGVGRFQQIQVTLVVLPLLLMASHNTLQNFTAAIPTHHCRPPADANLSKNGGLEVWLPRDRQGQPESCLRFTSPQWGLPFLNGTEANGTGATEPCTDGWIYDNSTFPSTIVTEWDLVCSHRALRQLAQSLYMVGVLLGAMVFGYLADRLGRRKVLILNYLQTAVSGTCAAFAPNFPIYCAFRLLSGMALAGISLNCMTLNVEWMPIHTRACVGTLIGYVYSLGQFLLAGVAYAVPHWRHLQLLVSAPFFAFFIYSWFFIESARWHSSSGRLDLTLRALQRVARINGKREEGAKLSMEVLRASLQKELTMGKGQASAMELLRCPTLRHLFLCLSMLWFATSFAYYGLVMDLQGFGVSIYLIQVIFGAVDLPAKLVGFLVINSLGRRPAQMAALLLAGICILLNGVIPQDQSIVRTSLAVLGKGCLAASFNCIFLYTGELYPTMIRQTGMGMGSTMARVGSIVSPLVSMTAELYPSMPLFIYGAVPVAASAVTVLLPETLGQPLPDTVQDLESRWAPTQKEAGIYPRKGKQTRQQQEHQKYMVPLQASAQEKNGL
From the text: (§1) The inhibition of cytochrome P450 (CYP) isoforms and a range of cellular transporters (except multidrug and toxin extrusion [MATE] proteins), as well as the induction of CYP isoforms were investigated using previously described methods.

OAT3 = target: T2, OAT3 (Homo sapiens, UniProt Q8TCC7); test: Uptake transporter inhibition; type: in vitro ADME; settings: probe substrate estrone-3-sulphate
T2 sequence (Q8TCC7 1-542): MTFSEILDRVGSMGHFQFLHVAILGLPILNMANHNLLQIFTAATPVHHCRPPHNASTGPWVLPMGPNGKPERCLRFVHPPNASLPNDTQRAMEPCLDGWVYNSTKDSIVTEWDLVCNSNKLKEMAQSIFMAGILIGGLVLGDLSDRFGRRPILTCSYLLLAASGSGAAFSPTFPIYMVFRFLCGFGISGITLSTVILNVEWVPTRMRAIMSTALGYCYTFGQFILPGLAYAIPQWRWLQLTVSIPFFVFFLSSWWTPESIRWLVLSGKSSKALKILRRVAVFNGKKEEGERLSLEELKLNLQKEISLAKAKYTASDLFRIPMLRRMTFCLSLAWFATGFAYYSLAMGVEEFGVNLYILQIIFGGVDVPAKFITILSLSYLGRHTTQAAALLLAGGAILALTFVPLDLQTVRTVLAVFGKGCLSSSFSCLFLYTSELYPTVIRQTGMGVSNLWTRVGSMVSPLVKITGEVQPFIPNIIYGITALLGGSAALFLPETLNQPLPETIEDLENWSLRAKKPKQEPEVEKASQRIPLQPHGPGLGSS
From the text: as §1

OATP1B3 = target: T3, OATP1B3 (Homo sapiens, UniProt Q9NPD5); test: Uptake transporter inhibition; type: in vitro ADME; settings: probe substrate pravastatin
T3 sequence (Q9NPD5 1-702): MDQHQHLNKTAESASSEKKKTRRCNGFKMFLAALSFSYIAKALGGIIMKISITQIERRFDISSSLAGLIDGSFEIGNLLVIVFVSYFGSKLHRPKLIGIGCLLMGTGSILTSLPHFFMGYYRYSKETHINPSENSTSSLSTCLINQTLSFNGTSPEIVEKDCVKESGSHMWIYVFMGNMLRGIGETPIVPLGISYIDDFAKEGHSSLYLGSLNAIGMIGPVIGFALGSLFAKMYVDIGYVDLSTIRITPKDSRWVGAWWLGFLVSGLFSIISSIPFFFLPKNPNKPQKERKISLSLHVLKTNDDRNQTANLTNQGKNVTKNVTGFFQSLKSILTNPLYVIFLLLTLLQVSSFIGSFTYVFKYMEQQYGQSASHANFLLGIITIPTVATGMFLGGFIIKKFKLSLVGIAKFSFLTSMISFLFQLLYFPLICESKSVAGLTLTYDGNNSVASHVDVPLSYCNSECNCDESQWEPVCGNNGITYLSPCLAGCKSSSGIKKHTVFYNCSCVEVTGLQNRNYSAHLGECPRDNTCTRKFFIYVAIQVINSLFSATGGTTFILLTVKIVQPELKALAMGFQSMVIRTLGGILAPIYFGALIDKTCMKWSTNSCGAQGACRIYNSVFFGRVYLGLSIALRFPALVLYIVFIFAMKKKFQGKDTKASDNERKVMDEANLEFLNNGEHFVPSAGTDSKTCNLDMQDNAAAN
From the text: as §1

Row | Compound | AE,urine(0–24h), fasted patients [1] | AE,urine(0–24h), fed patients [1] | IC50 (OAT1) | IC50 (OAT3) | IC50 (OATP1B3) | unchanged nifurtimox in urine, on average ([1]; fed and fasted patients, single oral 120 mg)
1 | CC1CS(=O)(=O)CCN1n1cc(SCC(N)C(=O)O)ccc1=O (stereo not shown) [M-4] | 5.9 % of dose | 12.3 % of dose | > 5 µM | > 5 µM | 10 µM | –
2 | CC1CS(=O)(=O)CCN1N (stereo not shown) [M-6] | 13.7 % of dose | 20.8 % of dose | > 30 µM | > 30 µM | > 50 µM | –
3 | CC1CS(=O)(=O)CCN1/N=C/c1ccc([N+](=O)[O-])o1 (stereo not shown) [Nifurtimox, (E)-N-(3-methyl-1,1-dioxo-1,4-thiazinan-4-yl)-1-(5-nitrofuran-2-yl) methanimine, reference compound] | 0.03 % of dose | 0.07 % of dose | > 20 µM | > 20 µM | > 50 µM | less than 0.1 % of the administered dose
